In patent US6329378A, “Hydrazone, hydrazine and thiosemicarbazone derivatives as antifungal agents” (Anadys Pharmaceuticals, Inc., priority 2000, dated 2001):
Values after ≈ are worked out from the molar mass of the structure shown.

Tests used:
C. albicans = assay: MIC, broth microdilution (NCCLS M27-A), C. albicans; format: cell-based, Candida albicans; details: 48 hours, C. albicans ATCC 10231; for MIC: Candida albicans, ATCC10231, 35° C.; for MIC C. albicans: 35° C.
Description: (§1) Compounds of the invention were tested for antifungal susceptibility using broth microdilution assay established by the National Committee for Clinical Laboratory Standards, in NCCLS Document M27-A, which is hereby incorporated by reference. Minimum inhibitory concentrations (MICs) and minimum fungicidal concentrations (MFCs) were measured.
(§2) Yeasts (Saccharomyces cerevisiae and Candida albicans) are cultured on SDA plates in a 35° C. incubator. Strains on SDA plates are stored at 4° C. and used as working stock cultures.
(§3) Inoculum for susceptibility testing is prepared from fresh 24 hour cultures. 5-10 colonies are scraped from the plate and suspended in three milliliters of sterile 0.85% saline (8.5 g/liter NaCl). The cell density of the solution is determined by measuring the absorbance in a spectrophotometer (Shimadzu UV-1201S UV-VIS Spectrophotometer) set at 600 nm. An absorbance value between 0.1 and 0.4 is required for an accurate reading.
(§4) For Candida albicans strains ATCC 10231, 1.0 OD600 unit is approximately 10^7 cells per ml. For Saccharomyces cerevisiae strain CTY552, 1.0 OD600 unit is slightly less than 10^7 cells per ml. Cell suspensions are diluted with the appropriate medium (typically RPMI-1640) to OD600 =0.0003 for Candida and OD600 =0.0004 for Saccharomyces. The diluted suspension contains approximately 3×10^3 cells per ml (this is a 2×concentration inoculum). Two 100 μl aliquots of this dilution are spread on SDA plates and incubated at 35° C. for 1-2 days to determine the precise number of colony forming units. An acceptable range for the inoculum (2×) is 1-5×10^3 cfu/ml (100-500 for 100 μl). Following two-fold dilution of the inoculum with compound, the final concentration of cells will be 0.5-2.5×10^3 per ml. The inoculum is kept at 4° C. and used within a few hours.
(§5) Stock solutions and concentrations tested will vary from compound to compound. In general, though, stock solutions of 12.8 mg/ml in DMSO (Sigma D-8779) are prepared. This will allow for a 128 μg/ml starting test concentration containing 1% DMSO. Stock solutions are stored at -20° C. and dilutions for antifungal testing are freshly prepared before each assay.
(§6) Stock solutions of Amphotericin B and Itraconazole are prepared at 1.6 mg/ml in DMSO. Amphotericin B is sold as a powder that is approximately 80% Amphotericin B. Stock solutions are made accordingly (2.0 mg of powder for a 1 ml solution of 1.6 mg/ml Amphotericin B).
(§7) Both of these (control and test compounds) represent 1:50 dilutions. For an assay with three fungal strains, 40 microliters of a stock solution are diluted to 2.0 ml with room temperature medium.
(§8) Antifungal susceptibility tests are setup in polystyrene, 96-well, flat bottom plates (Costar 9017). To every well in columns 2-12 is added 100 microliters of media. An electronic multichannel (12) pipettor with no tip on channel one is used. To every well in column one is added 200 microliters of diluted compound (32 μg/ml for Amphotericin B and Itraconazole controls, 256 μg/ml for test compounds, 100-fold dilution for natural product extracts). A manual multichannel (8) pipettor is then used to set up a series of 2-fold dilutions. 100 microliters is removed from each well of column one and mixed with 100 microliters in column 2. This is done successively (column two to column three etc.) to produce a set of 11 serial dilutions (column 12 is a drug free control).
(§9) To every well in two rows, 100 μl of inoculum (2×) of a single strain is added. To the final two rows on the plate (G & H), only media is added. Addition of inoculum is best accomplished using an electronic multichannel (12) pipettor. This setup (see below) creates a starting cell density of […] (100-500 per well) and drug concentration ranging from 16 μg/ml to […] for controls (Amphotericin B and Itraconazole), 128 μg/ml to 0.125 μg/ml for pure test compounds, and 200 to 204, 800-fold dilutions for natural product extracts.

S. serevisiae = assay: MIC, broth microdilution (NCCLS M27-A), S. cerevisiae; format: cell-based, Saccharomyces cerevisiae; details: for MIC: Saccharomyces cerevisiae, 48 h, read-out: MIC S. serevisiae; for MIC S. serevisiae: broth microdilution, 35° C., 48 hours, S. cerevisiae CTY552
Description: as §1, §2, §3, §4, §5, §6
Stock solutions of control compounds (1.6 mg/ml, Amphotericin B or Itraconazole) are initially diluted in medium to a concentration of 32 μg/ml while stock solutions of test compounds (typically 12.8 mg/ml) are diluted to 256 μg/ml. Both of these (control and test compounds) represent 1:50 dilutions. For an assay with three fungal strains, 40 microliters of a stock solution are diluted to 2.0 ml with room temperature medium.
as §8
To every well in two rows, 100 μl of inoculum (2×) of a single strain is added. To the final two rows on the plate (G & H), only media is added. Addition of inoculum is best accomplished using an electronic multichannel (12) pipettor. […]

A. Nidulans = assay: MIC, broth microdilution (NCCLS M27-A), A. nidulans; format: cell-based; details: 35° C., 48 hours; for MIC: Aspergillus nidulans
Description: as §1
Filamentous fungi (Aspergillus spp.) is cultured on PDA plates in a 35° C. incubator. Inoculum of Aspergillus for susceptibility testing is prepared from plates incubated at 35° C. for 5 days. Colonies are covered with 5 ml of sterile 0.85% saline (8.5 g/liter NaCl) and gently rocked for 10-15 minutes. To dislodge the conidia, an automatic pipettor is used to gently wash over the colonies. The saline solution is removed from the plate and the heavy particles are allowed to settle for 3-5 minutes. The upper suspension is removed and vortexed for 15 sec. The turbidity of the solution is determined by measuring the absorbance in a spectrophotometer (Shimadzu UV-1201S UV-VIS Spectrophotometer) set at 600 nm. An absorbance value between 0.1 and 0.4 is required for an accurate reading.
The cell suspension is diluted with the appropriate medium (typically RPMI-1640) to OD600 =0.0004. The final suspension should contain approximately 3×10^3 cfu per ml (this is a 2×concentrationinoculum). Two 100 μl aliquots of this dilution are spread on SDA plates and incubated at 35° C. for 1-2 days to determine the precise number of colony forming units. An acceptable range for the inoculum (2×) is 1-5×10^3 cfu/ml (100-500 for 100 μl). Following two-fold dilution of the inoculum with compound, the final concentration of cells will be 0.5-2.5×10^3 per ml. The inoculum is kept at 4° C. and used within a few hours.
as §5, §6, §7, §8, §9

Molecule	MIC (C. albicans) [µg/mL]	MIC (S. serevisiae) [µg/mL]	MIC (A. Nidulans) [µg/mL]	MIC C. albicans (C. albicans) [µg/mL]	MIC S. serevisiae (S. serevisiae) [µg/mL]	MIC A. Nidulans (A. Nidulans) [µg/mL]
COc1nccnc1NNCc1ccccc1O [(33)]	2 (≈ 8.12 µM)	1 (≈ 4.06 µM)	4 (≈ 16.2 µM)	–	–	–
COc1nccnc1N/N=C/c1ccc2ccccc2n1 [(9)]	8 (≈ 28.6 µM)	8 (≈ 28.6 µM)	16 (≈ 57.3 µM)	–	–	–
O=C(O)c1ccc(O)c(C=NNc2cccc([N+](=O)[O-])c2)c1 [(20), 5-carboxyl-2-hydroxybenzaldehyde-N-3-nitro-phenyl hydrazone]	8 (≈ 26.6 µM)	16 (≈ 53.1 µM)	2 (≈ 6.64 µM)	–	–	–
COc1cc(O)c(C=NNc2nccnc2OC)c(OC)c1 [(5)]	1 (≈ 3.29 µM)	1 (≈ 3.29 µM)	2 (≈ 6.57 µM)	–	–	–
2-pyridyl-benzaldehyde-N-(3-methoxy-2-pyrazinyl)hydrazine [(34)]	–	–	–	2	1	1
FC(F)(F)c1cc(NC(=S)N/N=C/c2ccccn2)cc(C(F)(F)F)c1 [(37)]	0.5 (≈ 1.27 µM)	1 (≈ 2.55 µM)	1 (≈ 2.55 µM)	–	–	–
Oc1cc(OCc2ccccc2)ccc1/C=N/NC(=S)Nc1ccc(Cl)cc1 [(45), N-[(4-chloro-phenyl)]-2-[(E)-(4-benzyloxy-2-hydroxyphenyl)methylidene]-1-hydrazonecarbothiamide]	1 (≈ 2.43 µM)	0.5 (≈ 1.21 µM)	0.5 (≈ 1.21 µM)	–	–	–
COc1ccccc1NN=Cc1cc(C(=O)O)ccc1O [(28), 5-carboxyl-2-hydroxybenzaldehyde-N-2-methoxy-phenyl hydrazone]	1 (≈ 3.49 µM)	1 (≈ 3.49 µM)	0.25 (≈ 0.873 µM)	–	–	–
3-carboxyl-2-hydroxybenzaldehyde-N-(3-methoxy-2-phenyl)hydrazine [(17)]	–	–	–	> 128	> 128	> 128
O=S(=O)(c1ccc(NC(=S)N/N=C/c2ccc(OCc3ccccc3)cc2O)cc1)N1CCCCC1 [(51)]	–	–	–	16 (≈ 30.5 µM)	0.5 (≈ 0.953 µM)	1 (≈ 1.91 µM)
O=C(O)c1ccc(O)c(C=NNc2ccccc2Br)c1 [(25), 5-carboxyl-2-hydroxybenzaldehyde-N-2-bromophenyl hydrazone]	2 (≈ 5.97 µM)	2 (≈ 5.97 µM)	1 (≈ 2.98 µM)	–	–	–
COc1nccnc1N/N=C/c1ccc(O)c(O)c1O [(8)]	4 (≈ 14.5 µM)	2 (≈ 7.24 µM)	> 128	–	–	–
Cc1c(Cl)cccc1NN=Cc1cc(C(=O)O)ccc1O [(29), 5-carboxyl-2-hydroxybenzaldehyde-N-3-chloro-2-methyl-phenyl hydrazone]	1 (≈ 3.28 µM)	1 (≈ 3.28 µM)	1 (≈ 3.28 µM)	–	–	–
O=C(O)c1ccc(COc2ccc(/C=N/NC(=S)Nc3ccc(Cl)cc3)c(O)c2)cc1 [(47), N-[(4-chloro-phenyl)]-2-[(E)-(4-carboxyl-benzyloxy-2-hydroxyphenyl)methylidene]-1-hydrazonecarbothiamide]	2 (≈ 4.39 µM)	1 (≈ 2.19 µM)	0.5 (≈ 1.1 µM)	–	–	–
O=C(O)c1ccc(O)c(C=NNc2ccccc2Cl)c1 [(26), 5-carboxyl-2-hydroxybenzaldehyde-N-2-chlorophenyl hydrazone]	2 (≈ 6.88 µM)	1 (≈ 3.44 µM)	0.5 (≈ 1.72 µM)	–	–	–
Cc1cccc(NN=Cc2cc(C(=O)O)ccc2O)c1 [(27), 5-carboxyl-2-hydroxybenzaldehyde-N-3-methyl-phenyl hydrazone]	1 (≈ 3.7 µM)	1 (≈ 3.7 µM)	0.25 (≈ 0.925 µM)	–	–	–
S=C(N/N=C/c1ccccn1)Nc1ccccc1 [(41)]	> 128	> 128	> 128	–	–	–
COC(=O)c1ccc(COc2ccc(/C=N/NC(=S)Nc3cccc(C(F)(F)F)c3)c(O)c2)cc1 [(43)]	0.5 (≈ 0.993 µM)	0.5 (≈ 0.993 µM)	0.25 (≈ 0.497 µM)	–	–	–
COc1nccnc1NN=Cc1cccc(O)c1O [(6)]	2 (≈ 7.68 µM)	1 (≈ 3.84 µM)	1 (≈ 3.84 µM)	–	–	–
O=C(O)c1ccc(O)c(C=NNc2ccccc2C(=O)O)c1 [(22), 5-carboxyl-2-hydroxybenzaldehyde-N-2-carboxyl-phenyl hydrazone]	> 64	> 64	> 64	–	–	–
O=C(O)c1ccc(O)c(C=NNc2cccc(F)c2)c1 [(23), 5-carboxyl-2-hydroxybenzaldehyde-N-3-fluorophenyl hydrazone]	2 (≈ 7.29 µM)	2 (≈ 7.29 µM)	0.125 (≈ 0.456 µM)	–	–	–
O=C(O)c1ccc(O)c(C=NNc2ccccc2OC(F)(F)F)c1 [(21), 5-carboxyl-2-hydroxybenzaldehyde-N-2-trifluoromethyloxy-phenyl hydrazone]	2 (≈ 5.88 µM)	1 (≈ 2.94 µM)	1 (≈ 2.94 µM)	–	–	–
O=C(O)c1ccc(O)c(C=NNc2cccc(Cl)c2)c1 [(30), 5-carboxyl-2-hydroxybenzaldehyde-N-3-chloro-phenyl hydrazone]	2 (≈ 6.88 µM)	1 (≈ 3.44 µM)	0.5 (≈ 1.72 µM)	–	–	–
Oc1ccccc1CNNc1ccccc1 [(32)]	1 (≈ 4.67 µM)	2 (≈ 9.33 µM)	0.125 (≈ 0.583 µM)	–	–	–
O=C(O)c1ccc(O)c(C=NNc2ccccc2)c1 [(18), 5-carboxyl-2-hydroxybenzaldehyde-N-phenyl hydrazone]	1 (≈ 3.9 µM)	1 (≈ 3.9 µM)	0.125 (≈ 0.488 µM)	–	–	–
COc1nccnc1NN=Cc1ccc(O)cc1O [(7)]	1 (≈ 3.84 µM)	1 (≈ 3.84 µM)	2 (≈ 7.68 µM)	–	–	–
O=C(O)c1ccc(O)c(C=NNc2ccccc2F)c1 [(24), 5-carboxyl-2-hydroxybenzaldehyde-N-2-fluoro-phenyl hydrazone]	0.25 (≈ 0.912 µM)	0.5 (≈ 1.82 µM)	0.063 (≈ 0.23 µM)	–	–	–
Fc1ccc(NC(=S)N/N=C/c2ccccn2)cc1 [(39)]	2 (≈ 7.29 µM)	2 (≈ 7.29 µM)	4 (≈ 14.6 µM)	–	–	–
N-[(4-dimethylamino)sulfonyl-N-piperidyl)phenyl)]-2-[(E)-(4-benzyloxy-2-hydroxyphenyl)methylidene]-1-hydrazonecarbothiamide [(52)]	–	–	–	> 64	–	> 64
